According to ChEMBL document CHEMBL5604062, “ASAP - ZIKV NS2B-NS3 protease fluorescence dose response” (2024):
Several values for one entry are separate records, joined by “and”; a condition that tells them apart may be missing. Identical values can stand only once.

biological target: Nonstructural protein 3 (Zika virus, UniProt A0A024AXB9); assay: Functional biochemical assay to identify treatments for viral infectious disease that targets Zika NS2B-NS3 protease. Utilizing a direct enzyme activity measurement method, reading the fluorescence intensity is used to characterize the relative potency of inhibitors as IC50.; set-up: species or system PRVABC59
Sequence (A0A024AXB9 whole entry): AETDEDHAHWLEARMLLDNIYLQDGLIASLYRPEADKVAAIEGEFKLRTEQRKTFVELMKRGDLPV

| SMILES | IC50 |
| --- | --- |
| O=C1OCc2ccc(NC(=O)[C@H]3CCNC34CCCC4)cc21 | > 25000 nM |
| O=C(Nc1ccc2c(c1)CNC2)c1cc(Cl)cc2nn[nH]c12 | 9550 nM |
| O=C(Nc1ccc2c(c1)CNC2)c1ccc2[nH]ncc2c1 | 2010 nM |
| O=C(Nc1ccc2c(c1)CNC2)c1cccc2[nH]c(C(F)(F)F)cc12 | 46 nM and 43 nM |
| O=C(Nc1ccc2c(c1)CNC2)c1cc(Cl)cc2[nH]c(-c3ccnn3C3CC3)nc12 | 100 nM and 76 nM |
| CN1Cc2cc(NC(=O)c3cc(Cl)cc4[nH]ncc34)ccc2C1(C)C | 7290 nM |
| O=C(Nc1ccc2nc[nH]c2c1)c1cc(F)cc2[nH]ncc12 | 3300 nM |
| Cn1cc(C(F)(F)F)nc1C(=O)Nc1cc(-c2cccnc2)ccn1 | > 25000 nM |
| CC(C)CCN1Cc2ccc(NC(=O)c3cc(Cl)cc4[nH]ncc34)cc2C1 | 3390 nM |
| C=CC[C@H]1NCc2cc(NC(=O)c3cccc4c3CC(=O)N4)ccc21 | 1150 nM |
| O=C(Nc1ccc2c(c1)CNC2)c1cc(Cl)cc2[nH]c(-c3nc4c(s3)CCC4)nc12 | 423 nM |
| COc1ccc2[nH]cnc2c1S(=O)(=O)Nc1ccc2c(c1)CNC2 | > 25000 nM |
| O=C(Nc1ccc2c(c1)CNC2)c1ccc2c(c1)CCC2 | 11700 nM |
| O=C(Nc1ccc2c(c1)C(=O)OC2)c1cc(CC2CCNCC2)ccc1F | > 25000 nM |
| Cn1nc(C(=O)Nc2cc(-c3cccnc3)ccn2)cc1C1CC1 | > 25000 nM |
| O=C(Nc1ccc2c(c1)CNC2)c1cc(Cl)cc2[nH]c(-c3ccc(F)cc3O)nc12 | 87 nM and 58 nM |
| O=C1OCc2ccc(NC(=O)c3cccc4c3CNC4)cc21 | > 25000 nM |
| NCc1ccccc1C(=O)Nc1ccc2c(c1)C(=O)OC2 | > 25000 nM |
| CCOC(=O)c1csc([C@H]2CCCN2C(=O)Nc2ccc3c(c2)CNC3)n1 | > 25000 nM |
| O=C1OCc2ccc(NC(=O)[C@H]3CNC4(CCCC4)C3)cc21 | > 25000 nM |
| Cc1c(C(=O)Nc2cc(-c3cccnc3)ccn2)cc(C(C)C)n1C | > 25000 nM |
| O=C(Nc1ccc2c(c1)CNC2)c1nc(C(F)(F)F)cs1 | > 25000 nM |
| Cn1cc2c(C(=O)Nc3ccc4c(c3)CNC4)cc(F)cc2n1 | 107 nM |
| c1cc([C@@H]2C[C@H]2c2ccc3c(c2)CNC3)c2cn[nH]c2c1 | > 25000 nM |
| O=C(Nc1ccc2c(c1)CNC2)c1cc(Br)cc2[nH]c([C@H]3CCCO3)nc12 | 274 nM |

| SMILES | IC50 |
| --- | --- |
| Cc1c(C(=O)Nc2cc(C3CCOCC3)ccc2F)cc(C2CC2)n1C | > 25000 nM |
| CN1C(=O)Cc2cc(C(=O)Nc3ccc4c(c3)CNC4)ccc21 | > 25000 nM |
| C=CC[C@H]1NCc2cc(NC(=O)c3cc(Cl)cc4[nH]ncc34)ccc21 | 449 nM |
| O=C(Nc1ccc2c(c1)CNC2)c1cccc2c1OCCN2 | 8240 nM |
| C[C@](N)(C(=O)Nc1ccc2c(c1)C(=O)OC2)c1cccs1 | > 25000 nM |
| CC1(C)C(=O)N[C@H]2CCCN(C(=O)Nc3ccc4c(c3)CNC4)[C@H]21 | > 25000 nM |
| O=C1C[C@H]2[C@H](CCCN2C(=O)Nc2ccc3c(c2)CNC3)N1 | > 25000 nM |
| O=C(Nc1ccc2c(c1)S(=O)(=O)NC2)c1cc(Cl)cc2[nH]ncc12 | > 25000 nM |
| O=C(Nc1ccc2c(c1)CNC2)N1CC[C@H](Oc2ccc(C3CC3)cn2)C1 | > 25000 nM |
| CCc1ccc(-c2nc3c(C(=O)Nc4ccc5c(c4)CNC5)cc(Cl)cc3[nH]2)cc1 | 163 nM |
| O=C(Nc1ccc2c(c1)CNC2)N1CCC[C@H]1c1nc2ncccc2[nH]1 | > 25000 nM |
| Cc1c(C(=O)NCc2ccnc(OC3CCOCC3)c2)cc(C2CC2)n1C | > 25000 nM |
| O=C1NS(=O)(=O)c2ccc(NC(=O)c3cc(Cl)cc4[nH]ncc34)cc21 | > 25000 nM |
| Cc1c(C(=O)NCc2cccc(C3COC3)c2)cc(C2CC2)n1C | > 25000 nM |
| CC(C)(C)c1nc2c(C(=O)Nc3ccc4c(c3)CNC4)cc(Br)cc2[nH]1 | 328 nM |
| O=C(Nc1ccc2c(c1)CNC2)N1CCC[C@@H]1COCc1ccccc1 | > 25000 nM |
| CNC(=O)c1cccc(C(=O)Nc2ccc3c(c2)CNC3)c1 | 870 nM |
| C#C[C@H](Nc1ccc2c(c1)CNC2)c1cccc2[nH]c(=O)[nH]c12 | 7050 nM |
| O=C(Nc1ccc2c(c1)CNC2)c1cc(Cl)cc2cc[nH]c12 | 70 nM and 65 nM |
| O=C(Nc1ccc2c(c1)C(=O)OC2)c1cccc(CC2CNC2)c1 | > 25000 nM |
| O=C(Nc1cc(-c2cccnc2)ccn1)c1csc(C2CC2)n1 | > 25000 nM |
| O=C(Nc1ccc2c(c1)CNC2)c1cccc2[nH]ccc12 | 281 nM |
| O=C(Nc1cc([C@H]2CCOC2)ccn1)c1ccc2ncsc2c1 | > 25000 nM |
| O=C1Cc2c(cc(F)cc2C(=O)Nc2ccc3c(c2)CNC3)N1 | 26 nM and 14 nM |
| O=C1OCc2ccc(NC(=O)[C@H]3CCNC3)cc21 | > 25000 nM |

| SMILES | IC50 |
| --- | --- |
| CC(C)NC(=O)[C@H](Nc1ccc2c(c1)CNC2)c1cc(F)cc2[nH]ncc12 | 14400 nM |
| O=C(Nc1ccc2[nH]c(=O)[nH]c2c1)c1cc(F)cc2[nH]ncc12 | > 25000 nM |
| O=C(Nc1ccc2c(c1)CNC2)c1cc(Cl)ccc1-n1cnnn1 | 1050 nM |
| C=CC[C@H]1NCc2cc(N[C@H](C(=O)NC(C)C)c3cc(Cl)cc4[nH]ncc34)ccc21 | 994 nM |
| CC1=C(c2cc(NC(=O)c3cc(Cl)cc4[nH]ncc34)cc3c2CNC3)CCC1=O | 137 nM |
| O=C1OCc2ccc(NC(=O)[C@H]3CNCc4[nH]ncc43)cc21 | > 25000 nM |
| O=C(Nc1cc(-c2cccnc2)ccn1)c1cc(C2CC2)no1 | > 25000 nM |
| Cn1c(=O)[nH]c2c(C(=O)Nc3ccc4c(c3)CNC4)cc(Br)cc21 | 34 nM and 22 nM |
| O=C(Nc1ccc2c(c1)CNC2)c1cc(Cl)cc2[nH]c(-c3cc(C4CC4)[nH]n3)nc12 | 80 nM and 29 nM and 61 nM |
| N#C[C@H](Nc1ccc2c(c1)CNC2)c1cccc2ncccc12 | 7260 nM |
| O=C(Nc1ccc2c(c1)CNC2)c1cc(Cl)cc2[nH]c(CCc3cccnc3)nc12 | 144 nM |
| NC[C@H]1CC[C@@H](NC(=O)c2cc(Cl)cc3[nH]ncc23)CC1 | 10700 nM |
| O=C(Nc1ccc2c(c1)CNC2)c1cc(Cl)cc(C(F)(F)F)n1 | 21000 nM |
| O=C(Nc1cc(-c2cccnc2)ccn1)c1cnc(C2CC2)s1 | > 25000 nM |
| CC1(C)C[C@H](C(=O)Nc2ccc3c(c2)C(=O)OC3)CCN1 | > 25000 nM |
| O=C(Nc1ccc2c(c1)CNC2)c1cccc2c1OCO2 | 2870 nM |
| Cc1nnc(SC[C@H]2CCCN2C(=O)Nc2ccc3c(c2)CNC3)s1 | 5770 nM |
| O=C(Nc1ccc2c(c1)CNC2)c1cccc2nc(O)ccc12 | 204 nM |
| O=C1Cc2cc(C(=O)Nc3ccc4c(c3)CNC4)c(Cl)cc2N1 | > 25000 nM |
| Cc1nc2ccc(C(=O)Nc3ccc4c(c3)CNC4)cc2s1 | > 25000 nM |
| COCc1cc(Cl)cc(C(=O)Nc2ccc3c(c2)CNC3)c1 | 785 nM |
| O=C(Nc1ccc2c(c1)CNC2)c1nc(-c2ccccc2)cs1 | > 25000 nM |
| O=C(Nc1ccc2c(c1)CNC2)c1cc(Cl)cc(N2CCCC2=O)c1 | 187 nM |
| COc1cc(Cl)cc(C(=O)Nc2ccc3c(c2)CNC3)c1 | 260 nM |
| O=C1Cc2cc(C(=O)Nc3ccc4c(c3)CNC4)ccc2N1 | 2410 nM and 6850 nM |

| SMILES | IC50 |
| --- | --- |
| CC(=O)N1Cc2ccc(NC(=O)c3cc(Cl)cc4[nH]ncc34)cc2C1 | > 25000 nM |
| COc1ncc(Cl)cc1C(=O)Nc1ccc2c(c1)CNC2 | 2580 nM |
| NCCC1(C(=O)Nc2ccc3c(c2)C(=O)OC3)CCCC1 | > 25000 nM |
| Cn1nc(C(=O)Nc2cc([C@H]3CCOC3)ccn2)cc1C1CC1 | > 25000 nM |
| Cc1c(C(=O)Nc2cccc(C3CCOCC3)c2)cc(C2CC2)n1C | > 25000 nM |
| O=C1CCCc2cc(C(=O)Nc3ccc4c(c3)CNC4)ccc2N1 | > 25000 nM |
| O=C(Nc1ccc2c(c1)CNC2)c1cc(Cl)cc2nn(-c3ccccc3)nc12 | 372 nM and 3470 nM |
| CCC[C@H](C)N1Cc2ccc(NC(=O)c3cc(Cl)cc4[nH]ncc34)cc2C1 | 3200 nM |
| O=C(Nc1cc(-c2cccnc2)ccn1)c1coc(C2CC2)n1 | > 25000 nM |
| N#Cc1cccc(-c2nc3c(C(=O)Nc4ccc5c(c4)CNC5)cc(Cl)cc3[nH]2)c1 | 99 nM and 18 nM and 48 nM |
| O=C(Nc1ccc2c(c1)CNC2)c1cccc2cn[nH]c12 | 207 nM and 615 nM |
| CO[C@]1(C(=O)Nc2ccc3c(c2)C(=O)OC3)CCCNC1 | > 25000 nM |
| O=C(Nc1cc2c(cc1Br)CNC2)c1cc(F)cc2[nH]ncc12 | 48 nM and 28 nM |
| C#Cc1cc(Cl)cc(C(=O)Nc2ccc3c(c2)CNC3)c1 | 268 nM |
| O=C1Cc2c(cc(Br)cc2C(=O)Nc2ccc3c(c2)C(=O)OC3)N1 | > 25000 nM |
| O=C(Nc1ccc2c(c1)CNC2)c1cc(Cl)cc2ccccc12 | 113 nM |
| O=C1CN(C(=O)Nc2ccc3c(c2)CNC3)[C@H]2CCCC[C@H]2N1 | > 25000 nM |
| O=C(Nc1ccc2c(c1)CNC2)N1CCC[C@H]1Cc1cc2ccccc2o1 | > 25000 nM |
| O=C(Nc1ccc2c(c1)CNC2)c1cc(Cl)cc2c1NCCC2 | 151 nM |
| Cn1nc(C(F)(F)F)cc1C(=O)Nc1cc(-c2cccnc2)ccn1 | > 25000 nM |
| O=C(Nc1ccc2c(c1)CNC2)c1cc(Cl)cc2[nH]c(-c3cnc(C4CC4)o3)nc12 | 50 nM and 27 nM |
| O=C(Nc1ccc2c(c1)CNC2)c1cc(Cl)cc(N2CCCC2)c1 | 114 nM |
| CC(=O)Nc1cccc(C(=O)Nc2ccc3c(c2)CNC3)c1 | 863 nM |
